Data on 19 compounds can be found in patent publication US12065442B2, “Tropomyosin receptor kinase (TRK) degradation compounds and methods of use” (Cullgen (Shanghai), Inc., priority 2018, dated 2024).

Molecules are shown by their SMILES. A value given as a limit tells only on which side of the number the result lay.

The subject of one assay is KM12 cells. In words: Cell viability assay (CellTiter-Glo) in KM12 cells. The class given is cell-based. The following applies: Homo sapiens, 72 h; Table 2; KM12 cell viability, CellTiter-Glo, 3 days; read-out: IC50. Background: ATP-based viability assays read luminescence as a measure of living cells.
For `Cc1ncsc1-c1ccc(CNC(=O)[C@@H]2C[C@@H](O)CN2C(=O)[C@@H](NC(=O)CCC(=O)N2CCN(c3cccc(-c4cnc5ccc(N6CCC[C@@H]6c6cccc(F)c6)nn45)n3)CC2)C(C)(C)C)cc1` [CPD-006, (2S,4R)-1-((S)-2-(4-(4-(6-(6-((R)-2-(3-Fluorophenyl)pyrrolidin-1-yl)imidazo[1,2-b]pyridazin-3-yl)pyridin-2-yl)piperazin-1-yl)-4-oxobutanamido)-3,3-dimethylbutanoyl)-4-hydroxy-N-(4-(4-methylthiazol-5-yl)benzyl)pyrrolidine-2-carboxamide], the IC50 – broadly, the concentration that gives 50% inhibition – turned out to be 500 nM. On the same count and under the same terms, then `O=C(CN1CCN(c2ccc(C(=O)Nc3n[nH]c4ccc(Cc5cc(F)cc(F)c5)cc34)c(NC3CCOCC3)c2)CC1)NCCNc1cccc2c1C(=O)N(C1CCC(=O)NC1=O)C2=O` (stereo not shown) [CPD-062, N-(5-(3,5-difluorobenzyl)-1H-indazol-3-yl)-4-(4-(2-((2-((2-(2,6-dioxopiperidin-3-yl)-1,3-dioxoisoindolin-4-yl)amino)ethyl)amino)-2-oxoethyl)piperazin-1-yl)-2-((tetrahydro-2H-pyran-4-yl)amino)benzamide], with 29 nM; and `Cc1ncsc1-c1ccc(CNC(=O)[C@@H]2C[C@@H](O)CN2C(=O)[C@@H](NC(=O)CCOCCOCCOCCOCCOCCC(=O)N2CCN(c3cccc(-c4cnc5ccc(N6CCC[C@@H]6c6cccc(F)c6)nn45)n3)CC2)C(C)(C)C)cc1` [CPD-005, (2S,4R)-1-((S)-2-(tert-butyl)-22-(4-(6-(6-((R)-2-(3-Fluorophenyl)pyrrolidin-1-yl)imidazo[1,2-b]pyridazin-3-yl)pyridin-2-yl)piperazin-1-yl)-4,22-dioxo-7,10,13,16,19-pentaoxa-3-azadocosanoyl)-4-hydroxy-N-(4-(4-methylthiazol-5-yl)benzyl)pyrrolidine-2-carboxamide], with more than 1000 nM. On the same count and under the same terms, then `O=C1CCC(N2C(=O)c3cccc(NCC(=O)N4CCN(c5cccc(-c6cnc7ccc(N8CCC[C@@H]8c8cccc(F)c8)nn67)n5)CC4)c3C2=O)C(=O)N1` (stereo partly drawn) [CPD-023, 2-(2,6-Dioxopiperidin-3-yl)-4-((2-(4-(6-(6-((R)-2-(3-fluorophenyl)pyrrolidin-1-yl)imidazo[1,2-b]pyridazin-3-yl)pyridin-2-yl)piperazin-1-yl)-2-oxoethyl)amino)isoindoline-1,3-dione], with 14.9 nM.

Still in this assay, the particulars now being: Homo sapiens, 72 h; Table 3; KM12 cell viability, CellTiter-Glo, 3 days; read-out: IC50.
With `O=C1CCC(N2Cc3cc(NCC(=O)N4CCN(c5cccc(-c6cnc7ccc(N8CCC[C@@H]8c8cccc(F)c8)nn67)n5)CC4)ccc3C2=O)C(=O)N1` (stereo partly drawn) [TR-190, 3-(5-((2-(4-(6-(6-((R)-2-(3-fluorophenyl)pyrrolidin-1-yl)imidazo[1,2-b]pyridazin-3-yl)pyridin-2-yl)piperazin-1-yl)-2-oxoethyl)amino)-1-oxoisoindolin-2-yl)piperidine-2,6-dione], the IC50 was found to be 3.6 nM. On to `O=C(CN1CCN(c2cccc(-c3cnc4ccc(N5CCC[C@@H]5c5cccc(F)c5)nn34)n2)CC1)NCCCNc1ccc2c(c1)C(=O)N(C1CCC(=O)NC1=O)C2=O` (stereo partly drawn) [TR-127, N-(3-((2-(2,6-dioxopiperidin-3-yl)-1,3-dioxoisoindolin-5-yl)amino)propyl)-2-(4-(6-(6-((R)-2-(3-fluorophenyl)pyrrolidin-1-yl)imidazo[1,2-b]pyridazin-3-yl)pyridin-2-yl)piperazin-1-yl)acetamide], for which the IC50 is 2.7 nM. On to `O=C1CCC(N2C(=O)c3ccc(NCC4CN(c5cccc(-c6cnc7ccc(N8CCC[C@@H]8c8cccc(F)c8)nn67)n5)C4)cc3C2=O)C(=O)N1` (stereo partly drawn) [TR-179, 2-(2,6-Dioxopiperidin-3-yl)-5-(((1-(6-(6-((R)-2-(3-fluorophenyl)pyrrolidin-1-yl)imidazo[1,2-b]pyridazin-3-yl)pyridin-2-yl)azetidin-3-yl)methyl)amino)isoindoline-1,3-dione], for which the IC50 was found to be 23.4 nM. The same measure, in the same setting: then `O=C1CCC(N2C(=O)c3ccc(NCCCCCC(=O)N4CCN(c5cccc(-c6cnc7ccc(N8CCC[C@@H]8c8cccc(F)c8)nn67)n5)CC4)cc3C2=O)C(=O)N1` (stereo partly drawn) [TR-122, 2-(2,6-Dioxopiperidin-3-yl)-5-((6-(4-(6-(6-((R)-2-(3-fluorophenyl)pyrrolidin-1-yl)imidazo[1,2-b]pyridazin-3-yl)pyridin-2-yl)piperazin-1-yl)-6-oxohexyl)amino)isoindoline-1,3-dione], with 2.7 nM.

In the case of `O=C1CCC(N2Cc3ccc(OCCN4CCN(c5cccc(-c6cnc7ccc(N8CCC[C@@H]8c8cccc(F)c8)nn67)n5)CC4)cc3C2=O)C(=O)N1` (stereo partly drawn) [TR-201, 3-(6-(2-(4-(6-(6-((R)-2-(3-fluorophenyl)pyrrolidin-1-yl)imidazo[1,2-b]pyridazin-3-yl)pyridin-2-yl)piperazin-1-yl)ethoxy)-1-oxoisoindolin-2-yl)piperidine-2,6-dione], the IC50 was more than 500 nM. Same read-out and setting: for `O=C1CCC(N2C(=O)c3ccc(CCC(=O)N4CCN(c5cccc(-c6cnc7ccc(N8CCC[C@@H]8c8cccc(F)c8)nn67)n5)CC4)cc3C2=O)C(=O)N1` (stereo partly drawn) [TR-194, 2-(2,6-Dioxopiperidin-3-yl)-5-(3-(4-(6-(6-((R)-2-(3-fluorophenyl)pyrrolidin-1-yl)imidazo[1,2-b]pyridazin-3-yl)pyridin-2-yl)piperazin-1-yl)-3-oxopropyl)isoindoline-1,3-dione] the value was 7.4 nM.

For `O=C(CN1CCN(c2ccc(C(=O)Nc3n[nH]c4ccc(Cc5cc(F)cc(F)c5)cc34)c(NC3CCOCC3)c2)CC1)NCCCCCCCCNc1ccc2c(c1)C(=O)N(C1CCC(=O)NC1=O)C2=O` (stereo not shown) [TR-159, N-(5-(3,5-Difluorobenzyl)-1H-indazol-3-yl)-4-(4-(2-((8-((2-(2,6-dioxopiperidin-3-yl)-1,3-dioxoisoindolin-5-yl)amino)octyl)amino)-2-oxoethyl)piperazin-1-yl)-2-((tetrahydro-2H-pyran-4-yl)amino)benzamide], the IC50 was 30.4 nM.

With `O=C1CCC(N2C(=O)c3ccc(NCCOCCOCCOCCC(=O)N4CCN(c5cccc(-c6cnc7ccc(N8CCC[C@@H]8c8cccc(F)c8)nn67)n5)CC4)cc3C2=O)C(=O)N1` (stereo partly drawn) [TR-114, 2-(2,6-Dioxopiperidin-3-yl)-5-((2-(2-(2-(3-(4-(6-(6-((R)-2-(3-fluorophenyl)pyrrolidin-1-yl)imidazo[1,2-b]pyridazin-3-yl)pyridin-2-yl)piperazin-1-yl)-3-oxopropoxy)ethoxy)ethoxy)ethyl)amino)isoindoline-1,3-dione], the IC50 was found to be 16.9 nM. The same measure, in the same setting: then `O=C(CN1CCN(c2cccc(-c3cnc4ccc(N5CCC[C@@H]5c5cccc(F)c5)nn34)n2)CC1)NCCOCCOCCOCCOCCOCCNc1ccc2c(c1)C(=O)N(C1CCC(=O)NC1=O)C2=O` (stereo partly drawn) [TR-132, N-(17-((2-(2,6-dioxopiperidin-3-yl)-1,3-dioxoisoindolin-5-yl)amino)-3,6,9,12,15-pentaoxaheptadecyl)-2-(4-(6-(6-((R)-2-(3-fluorophenyl)pyrrolidin-1-yl)imidazo[1,2-b]pyridazin-3-yl)pyridin-2-yl)piperazin-1-yl)acetamide], with 4.4 nM; and `O=C1CCC(N2C(=O)c3ccc(NCC(=O)N4CCN(c5ccc(C(=O)Nc6n[nH]c7ccc(Cc8cc(F)cc(F)c8)cc67)c(NC6CCOCC6)c5)CC4)cc3C2=O)C(=O)N1` (stereo not shown) [TR-144, N-(5-(3,5-Difluorobenzyl)-1H-indazol-3-yl)-4-(4-((2-(2,6-dioxopiperidin-3-yl)-1,3-dioxoisoindolin-5-yl)glycyl)piperazin-1-yl)-2-((tetrahydro-2H-pyran-4-yl)amino)benzamide], with 2.2 nM; and `O=C(CN1CCN(c2ccc(C(=O)Nc3n[nH]c4ccc(Cc5cc(F)cc(F)c5)cc34)c(NC3CCOCC3)c2)CC1)NCCCNc1ccc2c(c1)C(=O)N(C1CCC(=O)NC1=O)C2=O` (stereo not shown) [TR-167, N-(5-(3,5-Difluorobenzyl)-1H-indazol-3-yl)-4-(4-(2-((3-((2-(2,6-dioxopiperidin-3-yl)-1,3-dioxoisoindolin-5-yl)amino)propyl)amino)-2-oxoethyl)piperazin-1-yl)-2-((tetrahydro-2H-pyran-4-yl)amino)benzamide], with 3.3 nM. For the compound `O=C(CN1CCN(c2cccc(-c3cnc4ccc(N5CCC[C@@H]5c5cccc(F)c5)nn34)n2)CC1)NCCNc1ccc2c(c1)C(=O)N(C1CCC(=O)NC1=O)C2=O` (stereo partly drawn) [TR-130, N-(2-((2-(2,6-dioxopiperidin-3-yl)-1,3-dioxoisoindolin-5-yl)amino)ethyl)-2-(4-(6-(6-((R)-2-(3-fluorophenyl)pyrrolidin-1-yl)imidazo[1,2-b]pyridazin-3-yl)pyridin-2-yl)piperazin-1-yl)acetamide], the IC50 is 0.9 nM.

Staying with this assay, now noted: Homo sapiens, 72 h; Table 4; KM12 cell viability, CellTiter-Glo, 3 days; read-out: IC50.
Regarding `O=C1CCC(N2C(=O)c3ccc(N4CC(CN5CCN(c6ccc(C(=O)Nc7n[nH]c8ccc(Cc9cc(F)cc(F)c9)cc78)c(NC7CCOCC7)c6)CC5)C4)cc3C2=O)C(=O)N1` (stereo not shown) [TR-231, N-(5-(3,5-Difluorobenzyl)-1H-indazol-3-yl)-4-(4-((1-(2-(2,6-dioxopiperidin-3-yl)-1,3-dioxoisoindolin-5-yl)azetidin-3-yl)methyl)piperazin-1-yl)-2-((tetrahydro-2H-pyran-4-yl)amino)benzamide], the IC50 was found to be 3 nM. On to `O=C1CCC(n2c(=O)n(CCCN3CCN(c4cccc(-c5cnc6ccc(N7CCC[C@@H]7c7cccc(F)c7)nn56)n4)CC3)c3ccccc32)C(=O)N1` (stereo partly drawn) [TR-228, 3-(3-(3-(4-(6-(6-((R)-2-(3-Fluorophenyl)pyrrolidin-1-yl)imidazo[1,2-b]pyridazin-3-yl)pyridin-2-yl)piperazin-1-yl)propyl)-2-oxo-2,3-dihydro-1H-benzo[d]imidazol-1-yl)piperidine-2,6-dione], for which the IC50 stood at 56.3 nM.

With `O=C1CCC(N2Cc3cc(NC4CN(c5cccc(-c6cnc7ccc(N8CCC[C@@H]8c8cccc(F)c8)nn67)n5)C4)ccc3C2=O)C(=O)N1` (stereo partly drawn) [TR-206, 3-(5-((1-(6-(6-((R)-2-(3-Fluorophenyl)pyrrolidin-1-yl)imidazo[1,2-b]pyridazin-3-yl)pyridin-2-yl)azetidin-3-yl)amino)-1-oxoisoindolin-2-yl)piperidine-2,6-dione], the IC50 was found to be 15.8 nM.
